The text below walks through data of patent publication US20090069320A1, “Substituted 4-Amino-Quinazoline Compounds with Metabotropic Glutamate Receptor Regulating Activity and Uses Thereof” (Gruenenthal GmbH, priority 2006, published 2009).

The structures appear in SMILES notation. Counter-ions that a name gives are not always drawn.

The first assay deals with T1, mGluR5 receptor (Sus scrofa, UniProt I3LUI7).
T1 construct: 450 μg of protein from brain homogenate with 5 nM ^3[H]-MPEP; from tissue; host or cells: pig brain halves without medulla, cerebellum and pons
T1 sequence (I3LUI7 19-1212): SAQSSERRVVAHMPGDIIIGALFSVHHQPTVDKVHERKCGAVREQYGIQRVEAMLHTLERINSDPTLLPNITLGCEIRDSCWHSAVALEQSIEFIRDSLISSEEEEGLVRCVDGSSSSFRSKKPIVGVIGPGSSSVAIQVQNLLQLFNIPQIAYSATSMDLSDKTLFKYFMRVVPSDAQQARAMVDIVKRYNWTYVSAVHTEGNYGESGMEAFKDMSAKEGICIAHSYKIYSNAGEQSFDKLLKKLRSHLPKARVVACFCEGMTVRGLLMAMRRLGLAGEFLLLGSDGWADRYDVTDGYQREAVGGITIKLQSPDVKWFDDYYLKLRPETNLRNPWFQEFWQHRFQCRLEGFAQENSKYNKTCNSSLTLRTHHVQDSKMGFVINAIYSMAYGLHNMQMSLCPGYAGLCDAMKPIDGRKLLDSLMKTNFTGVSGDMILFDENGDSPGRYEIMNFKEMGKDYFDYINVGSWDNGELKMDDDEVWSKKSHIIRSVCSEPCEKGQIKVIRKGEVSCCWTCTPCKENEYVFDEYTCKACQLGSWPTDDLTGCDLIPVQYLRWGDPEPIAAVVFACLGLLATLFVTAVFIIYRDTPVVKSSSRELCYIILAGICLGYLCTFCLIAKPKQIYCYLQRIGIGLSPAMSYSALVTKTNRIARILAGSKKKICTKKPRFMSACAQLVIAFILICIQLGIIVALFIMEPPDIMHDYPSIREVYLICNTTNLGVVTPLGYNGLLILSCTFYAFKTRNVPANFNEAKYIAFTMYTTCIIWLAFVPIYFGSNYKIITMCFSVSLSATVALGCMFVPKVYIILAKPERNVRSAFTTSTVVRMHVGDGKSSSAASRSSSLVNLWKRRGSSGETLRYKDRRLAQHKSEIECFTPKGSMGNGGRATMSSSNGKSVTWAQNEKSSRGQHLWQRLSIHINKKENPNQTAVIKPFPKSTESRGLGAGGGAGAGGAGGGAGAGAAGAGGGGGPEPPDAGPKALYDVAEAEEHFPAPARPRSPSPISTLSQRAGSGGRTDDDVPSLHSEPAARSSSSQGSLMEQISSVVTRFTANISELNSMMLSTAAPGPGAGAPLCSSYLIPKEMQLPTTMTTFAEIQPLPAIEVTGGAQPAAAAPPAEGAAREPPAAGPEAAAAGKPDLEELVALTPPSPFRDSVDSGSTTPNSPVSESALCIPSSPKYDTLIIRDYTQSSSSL
The assay is described as follows: [3H]-MPEP mGluR5 receptor binding assay (pig brain homogenate). As to conditions: 5 nM [3H]-MPEP, read-out: IC50 mGluR5 Receptor (pig) [^3H]-MPEP Bond. Put shortly: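 Radioligand displacement of 5 nM [3H]-MPEP from pig brain homogenate (450 μg protein; medulla, cerebellum and pons removed) in 20 mM Hepes pH 8.0. Compounds were tested at 10 μM, incubated 60 min at room temperature, then filtered and counted by scintillation. Non-specific binding was defined with 10 μM MPEP.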
With `CC(=O)N(Cc1cccc(-c2cc3c(NC4CC4)ncnc3cc2C)c1)C1CC1` [Example 710, N-cyclopropyl-N-(3-(4-(cyclopropylamino)-7-methylquinazolin-6-yl)benzyl)acetamide], the IC50 (as a rule, the concentration that gives 50% inhibition) came to 0.11 µM.
On the same count and under the same terms, next, `CC(=O)N(Cc1c(F)ccc(-c2ccc3ncnc(NC4CC4)c3c2)c1F)C1CC1` [Example 249, N-cyclopropyl-N-[3-(4-cyclopropylamino-quinazolin-6-yl)-2,6-difluoro-benzyl]-acetamide]: 0.14 µM.
On the same count and under the same terms, with `COc1ccc(CN(C(=O)c2ccccc2)C2CC2)cc1-c1ccc2ncnc(NC3CC3)c2c1` [Example 267, N-cyclopropyl-N-(3-(4-(cyclopropylamino)quinazolin-6-yl)-4-methoxybenzyl)benzamide hydrochloride] the figure was 6.55 µM.
Consider `CC(C)(C)CNc1ncnc2ccc(-c3cccc(CN4C(=O)CCC4=O)c3)cc12` [Example 866, 1-(3-(4-(neopentylamino)quinazolin-6-yl)benzyl)pyrrolidine-2,5-dione], for which the IC50 is 0.09 µM.
Same read-out and setting: with `CC(=O)N(Cc1cccc(-c2ccc3ncnc(NC4CC4)c3c2)c1)C(C)=O` [Example 879, N-acetyl-N-(3-(4-(cyclopropylamino)quinazolin-6-yl)benzyl)acetamide] the figure was 1.66 µM.

Still in this assay, the particulars now being: 10 μM compound, 5 nM [3H]-MPEP.
Regarding `CC(C)(C)Nc1ncnc2ccc(-c3ccc(F)c(CN(C4CC4)S(C)(=O)=O)c3)cc12` [Example 827, N-(5-(4-(tert-butylamino)quinazolin-6-yl)-2-fluorobenzyl)-N-cyclopropyl methane sulfonamide], the “% Inhibition of mGluR5 Receptor (pig) [^3H]-MPEP Bond at 10 μM” value was 87%.
Still for that read-out and setting: with `CC(C)(C)Nc1ncnc2ccc(-c3ccc(F)c(CN(C(=O)C(C)(C)C)C4CC4)c3)cc12` [Example 850, N-(5-(4-(tert-butylamino)quinazolin-6-yl)-2-fluorobenzyl)-N-cyclopropyl pivalamide] the figure was 83%; with `O=S(=O)(c1c(F)c(F)c(F)c(F)c1F)N(Cc1cc(-c2ccc3ncnc(NC4CC4)c3c2)ccn1)C1CC1` [Example 848, N-cyclopropyl-N-((4-(4-(cyclopropylamino)quinazolin-6-yl)pyridin-2-yl)methyl)-2,3,4,5,6-pentafluorobenzole sulfonamide], 53%; with `O=S(=O)(c1ccc(Cl)cc1Cl)N(Cc1cccc(-c2cc(F)c3ncnc(NC4CC4)c3c2)c1)C1CC1` [Example 782, 2,4-dichloro-N-cyclopropyl-N-(3-(4-(cyclopropylamino)-8-fluoroquinazolin-6-yl)benzyl)benzole sulfonamide], 50%.

The same assay, now with this note: 10 μM compound, 5 nM [3H]-MPEP, read-out: % Inhibition of mGluR5 Receptor (pig) [^3H]-MPEP Bond at 10 μM.
For the molecule `CC(=O)N(CC#N)Cc1cccc(-c2ccc3ncnc(NC4CC4)c3c2)c1` [Example 200, N-cyanomethyl-N-[3-(4-cyclopropylamino-quinazolin-6-yl)-benzyl]-acetamide], the inhibition (as a rule, the drop in the measured response relative to a control, in per cent) at 10 µM is 40%.
The same measure, in the same setting: next, `CC(C)(C)C(=O)N(Cc1cccc(-c2cc(F)c3ncnc(NC4CC4)c3c2)c1)C1CC1` [Example 724, N-cyclopropyl-N-(3-(4-(cyclopropylamino)-8-fluoroquinazolin-6-yl)benzyl)pivalamide]: 86%; `O=C(C1CCCCC1)N(Cc1cccc(-c2cc(F)c3ncnc(NC4CC4)c3c2)c1)C1CC1` [Example 662, N-cyclopropyl-N-(3-(4-(cyclopropylamino)-8-fluoroquinazolin-6-yl)benzyl)cyclohexane carboxamide]: 54%.
On the same count and under the same terms, with `O=C(c1ccccn1)N(Cc1cccc(-c2ccc3ncnc(NCCc4ccccc4)c3c2)c1)C1CC1` [Example 370, N-cyclopropyl-N-(3-(4-(phenethylamino)quinazolin-6-yl)benzyl)picolinamide] the figure was 52%.
On the same count and under the same terms, next, `Cc1cc2ncnc(NC3CC3)c2cc1-c1cccc(CN(C(=O)c2ccno2)C2CC2)c1` [Example 745, N-cyclopropyl-N-(3-(4-(cyclopropylamino)-7-methylquinazolin-6-yl)benzyl)isoxazole-5-carboxamide]: 52%.
Take `O=C(c1ccco1)N(Cc1cc(-c2ccc3ncnc(NC4CC4)c3c2)ccc1Cl)C1CC1` [Example 746, N-(2-chloro-5-(4-(cyclopropylamino)quinazolin-6-yl)benzyl)-N-cyclopropylfuran-2-carboxamide]: the inhibition at 10 µM turned out to be 93%.
Same read-out and setting: next, `Cc1cc2ncnc(NC3CC3)c2cc1-c1cccc(CN(C(=O)c2ccc(F)cc2F)C2CC2)c1` [Example 660, N-cyclopropyl-N-(3-(4-(cyclopropylamino)-7-methylquinazolin-6-yl)benzyl)-2,4-difluorobenzamide]: 94%.
Still for that read-out and setting: next, `CN(C)CC(=O)N(Cc1cccc(-c2ccc3ncnc(NC4CC4)c3c2)c1)C1CC1` [Example 173, N-cyclopropyl-N-[3-(4-cyclopropylamino-quinazolin-6-yl)-benzyl]-2-dimethylamino-acetamide]: 30%.
As to `O=C(c1ccccn1)N(Cc1cccc(-c2ccc3ncnc(NC4CC4)c3c2)c1)C1CC1` [Example 170, pyridine-2-carboxylic acid cyclopropyl-[3-(4-cyclopropylamino-quinazolin-6-yl)-benzyl]-amide], the inhibition at 10 µM stood at 78%.
Consider `Cc1cccc(CNc2ncnc3ccc(-c4cccc(CN(C(=O)c5ccccn5)C5CC5)c4)cc23)c1` [Example 395, N-cyclopropyl-N-(3-(4-(3-methylbenzylamino)quinazolin-6-yl)benzyl)picolinamide], for which the inhibition at 10 µM came out at 44%.
Same read-out and setting: next, `O=C(c1ccc(F)cc1F)N(Cc1cccc(-c2cc(F)c3ncnc(NC4CC4)c3c2)c1)C1CC1` [Example 619, N-cyclopropyl-N-(3-(4-(cyclopropylamino)-8-fluoroquinazolin-6-yl)benzyl)-2,4-difluorobenzamide]: 98%.
The same measure, in the same setting: next, `Cc1cc2ncnc(NC3CC3)c2cc1-c1cccc(CN(C2CC2)S(=O)(=O)C(C)C)c1` [Example 705, N-cyclopropyl-N-(3-(4-(cyclopropylamino)-7-methylquinazolin-6-yl)benzyl)propane-2-sulfonamide]: 86%; `CN(C)CC(=O)N(Cc1cc(-c2ccc3ncnc(NC4CC4)c3c2)ccc1F)C1CC1` [Example 398, N-cyclopropyl-N-(5-(4-(cyclopropylamino)quinazolin-6-yl)-2-fluorobenzyl)-2-(dimethylamino)acetamide]: 63%.
Same read-out and setting: next, `O=C(c1ccncc1)N(Cc1cc(-c2ccc3ncnc(NC4CC4)c3c2)ccc1F)C1CC1` [Example 436, N-cyclopropyl-N-(5-(4-(cyclopropylamino)quinazolin-6-yl)-2-fluorobenzyl)isonicotinamide]: 98%; `O=C(c1cccnc1)N(Cc1cccc(-c2ccc3ncnc(NCCc4ccccc4)c3c2)c1)C1CC1` [Example 385, N-cyclopropyl-N-(3-(4-(phenethylamino)quinazolin-6-yl)benzyl)nicotinamide]: 35%.
For the molecule `O=C(c1c(F)c(F)c(F)c(F)c1F)N(Cc1cc(-c2ccc3ncnc(NC4CC4)c3c2)ccc1Cl)C1CC1` [Example 859, N-(2-chloro-5-(4-(cyclopropylamino)quinazolin-6-yl)benzyl)-N-cyclopropyl-2,3,4,5,6-pentafluorobenzamide], the inhibition at 10 µM came to 92%.
On the same count and under the same terms, next, `O=C1CCC(=O)N1Cc1ccc(F)c(-c2ccc3ncnc(NC4CC4)c3c2)c1` [Example 895, 1-(3-(4-(cyclopropylamino)quinazolin-6-yl)-4-fluorobenzyl)pyrrolidine-2,5-dione]: 72%; `COc1ccc(C(=O)N(Cc2cccc(-c3ccc4ncnc(NC5CC5)c4c3)c2)C2CC2)cc1OC` [Example 158, N-cyclopropyl-N-[3-(4-cyclopropylamino-quinazolin-6-yl)-benzyl]-3,4-dimethoxy-benzamide]: 81%; `CCCN(Cc1cccc(-c2ccc3ncnc(Nc4ccccc4)c3c2)c1)C(=O)c1sccc1C` [Example 110, 3-methyl-thiophene-2-carboxylic acid [3-(4-phenylamino-quinazolin-6-yl)-benzyl]-propyl-amide]: 43%.
Same read-out and setting: with `Cc1cc2ncnc(NC3CC3)c2cc1-c1cccc(CN(C(=O)c2ccccc2)C2CC2)c1` [Example 714, N-cyclopropyl-N-(3-(4-(cyclopropylamino)-7-methylquinazolin-6-yl)benzyl)benzamide] the figure was 95%; with `COc1ccc(CNc2ncnc3ccc(-c4cccc(CN(C(=O)CN(C)C)C5CC5)c4)cc23)c(OC)c1` [Example 689, N-cyclopropyl-N-(3-(4-(2,4-dimethoxybenzylamino)quinazolin-6-yl)benzyl)-2-(dimethylamino)acetamide], 41%; with `Cc1cccc(CNc2ncnc3ccc(-c4cccc(CN(C(=O)c5cc(C)nn5C)C5CC5)c4)cc23)c1` [Example 402, N-cyclopropyl-1,3-dimethyl-N-(3-(4-(3-methylbenzylamino)quinazolin-6-yl)benzyl)-1H-pyrazole-5-carboxamide], 34%.
Still for that read-out and setting: next, `O=C(c1ccccn1)N(Cc1cc(-c2ccc3ncnc(NC4CC4)c3c2)ccc1F)C1CC1` [Example 428, N-cyclopropyl-N-(5-(4-(cyclopropylamino)quinazolin-6-yl)-2-fluorobenzyl)picolinamide]: 96%; `CN(C)CC(=O)N(Cc1cc(-c2ccc3ncnc(NC4CC4)c3c2)ccc1Cl)C1CC1` [Example 733, N-(2-chloro-5-(4-(cyclopropylamino)quinazolin-6-yl)benzyl)-N-cyclopropyl-2-(dimethylamino)acetamide]: 39%.
